Data: ChEMBL document CHEMBL1201862, “PubChem BioAssay data set” (2004)
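How tested: cells in 96-well plates exposed to compound for 48 hours at five concentrations. At the GI50, growth is halved.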 The source made the active and inactive calls. Rule as the data show it: active = GI50 up to about 1.1 µM and inactive = higher.

How the values were obtained:
Assay in all cases: NCI anticancer screen, dose series, 48 h
786-0 = tested on: 786-0
A498 = tested on: A498
A549 = tested on: A549
ACHN = tested on: ACHN
BT-549 = tested on: BT-549
CAKI-1 = tested on: CAKI-1
CCRF-CEM = tested on: CCRF-CEM
COLO 205 = tested on: COLO 205
DU-145 = tested on: DU-145
EKVX = tested on: EKVX
HCC 2998 = tested on: HCC 2998
HCT-116 = tested on: HCT-116
HCT-15 = tested on: HCT-15
HL-60 = tested on: HL-60
HOP-62 = tested on: HOP-62
HOP-92 = tested on: HOP-92
HT-29 = tested on: HT-29
Hs-578T = tested on: Hs-578T
IGROV-1 = tested on: IGROV-1
K562 = tested on: K562
KM12 = tested on: KM12
LOX IMVI = tested on: LOX IMVI
M14 = tested on: M14
MCF7 = tested on: MCF7
MDA-MB-231 = tested on: MDA-MB-231
MDA-MB-435 = tested on: MDA-MB-435
MDA-N = tested on: MDA-N
MOLT-4 = tested on: MOLT-4
Malme-3M = tested on: Malme-3M
NCI-H23 = tested on: NCI-H23
NCI-H460 = tested on: NCI-H460
NCI-H522 = tested on: NCI-H522
NCI/ADR-RES = tested on: NCI/ADR-RES
OVCAR-3 = tested on: OVCAR-3
OVCAR-4 = tested on: OVCAR-4
OVCAR-5 = tested on: OVCAR-5
OVCAR-8 = tested on: OVCAR-8
PC-3 = tested on: PC-3
RPMI-8226 = tested on: RPMI-8226
RXF 393 = tested on: RXF 393
SF-268 = tested on: SF-268
SF-295 = tested on: SF-295
SF-539 = tested on: SF-539
SK-MEL-28 = tested on: SK-MEL-28
SK-MEL-2 = tested on: SK-MEL-2
SK-MEL-5 = tested on: SK-MEL-5
SK-OV-3 = tested on: SK-OV-3
SN12C = tested on: SN12C
SNB-19 = tested on: SNB-19
SW-620 = tested on: SW-620
T47D = tested on: T47D
TK-10 = tested on: TK-10
U-251 = tested on: U-251
UACC-257 = tested on: UACC-257
UACC-62 = tested on: UACC-62
UO-31 = tested on: UO-31
SNB-75 = tested on: SNB-75

With `Cc1ccc(S(=O)(=O)NNC2(NS(=O)(=O)c3ccc(Cl)cc3)C(Cl)=C(Cl)C(=O)c3ccccc32)cc1` (centres undefined) the GI50 (786-0) was 14.1 µM (inactive), the GI50 (A498) was 17.8 µM (inactive) and the GI50 (A549) was 16.9 µM (inactive). For the same molecule, the GI50 (ACHN) was 16.1 µM (inactive), the GI50 (BT-549) was 14.9 µM (inactive) and the GI50 (CAKI-1) was 18.4 µM (inactive). The GI50 (CCRF-CEM) was 22.9 µM (inactive), the GI50 (COLO 205) was 18.1 µM (inactive) and the GI50 (DU-145) was 18.5 µM (inactive). The GI50 (EKVX) was 15.5 µM (inactive), the GI50 (HCC 2998) was 18.5 µM (inactive) and the GI50 (HCT-116) was 17.9 µM (inactive). The GI50 (HCT-15) was 24.4 µM, the GI50 (HL-60) was 14.4 µM (inactive) and the GI50 (HOP-62) was 21.3 µM (inactive). For the same molecule, the GI50 (HOP-92) was 17.3 µM (inactive), the GI50 (HT-29) was 19.1 µM (inactive) and the GI50 (Hs-578T) was 17.2 µM (inactive). For the same molecule, the GI50 (IGROV-1) was 14.7 µM (inactive), the GI50 (K562) was 7.93 µM (inactive) and the GI50 (KM12) was 17.3 µM (inactive). The GI50 (LOX IMVI) was 23.5 µM (inactive), the GI50 (M14) was 19 µM (inactive) and the GI50 (MCF7) was 16.4 µM (inactive). The GI50 (MDA-MB-231) was 19 µM (inactive), the GI50 (MDA-MB-435) was 18.8 µM (inactive) and the GI50 (MDA-N) was 17.4 µM (inactive). For the same molecule, the GI50 (MOLT-4) was 25.6 µM (inactive), the GI50 (Malme-3M) was 17.3 µM (inactive) and the GI50 (NCI-H23) was 15 µM (inactive). The GI50 (NCI-H460) was 17.9 µM (inactive), the GI50 (NCI-H522) was 21.7 µM (inactive) and the GI50 (NCI/ADR-RES) was 23.1 µM (inactive). The GI50 (OVCAR-3) was 16.4 µM (inactive), the GI50 (OVCAR-4) was 16.1 µM (inactive) and the GI50 (OVCAR-5) was 18.3 µM (inactive). The GI50 (OVCAR-8) was 21.6 µM (inactive), the GI50 (PC-3) was 16.7 µM (inactive) and the GI50 (RPMI-8226) was 5.4 µM (inactive). For the same molecule, the GI50 (RXF 393) was 17 µM (inactive), the GI50 (SF-268) was 14 µM (inactive) and the GI50 (SF-295) was 20.9 µM (inactive). For the same molecule, the GI50 (SF-539) was 21.2 µM (inactive), the GI50 (SK-MEL-28) was 25.7 µM (inactive) and the GI50 (SK-MEL-2) was 20 µM (inactive). For the same molecule, the GI50 (SK-MEL-5) was 15.2 µM (inactive), the GI50 (SK-OV-3) was 16.9 µM (inactive) and the GI50 (SN12C) was 17 µM (inactive). For the same molecule, the GI50 (SNB-19) was 16.3 µM (inactive), the GI50 (SW-620) was 26 µM (inactive) and the GI50 (T47D) was 28.3 µM (inactive). The GI50 (TK-10) was 16.8 µM (inactive), the GI50 (U-251) was 21.8 µM (inactive) and the GI50 (UACC-257) was 17.6 µM (inactive). The GI50 (UACC-62) was 16.6 µM (inactive) and the GI50 (UO-31) was 26.8 µM (inactive).
For `C/C=C\C(CC(=O)NCCc1c[nH]c2ccccc12)CC(=O)OC` (centres undefined), the GI50 (786-0) was > 100 µM (inactive), the GI50 (A498) was > 100 µM (inactive) and the GI50 (A549) was > 100 µM (inactive). The GI50 (ACHN) was > 100 µM (inactive), the GI50 (BT-549) was > 100 µM (inactive) and the GI50 (CAKI-1) was > 100 µM (inactive). The GI50 (COLO 205) was > 100 µM (inactive), the GI50 (DU-145) was > 100 µM (inactive) and the GI50 (EKVX) was > 100 µM (inactive). For the same molecule, the GI50 (HCC 2998) was > 100 µM (inactive), the GI50 (HCT-116) was > 100 µM (inactive) and the GI50 (HCT-15) was > 100 µM. For the same molecule, the GI50 (HOP-62) was > 100 µM (inactive), the GI50 (HOP-92) was > 100 µM (inactive) and the GI50 (HT-29) was > 100 µM (inactive). The GI50 (Hs-578T) was > 100 µM (inactive), the GI50 (IGROV-1) was > 100 µM (inactive) and the GI50 (K562) was > 100 µM (inactive). The GI50 (KM12) was > 100 µM (inactive), the GI50 (M14) was > 100 µM (inactive) and the GI50 (MCF7) was > 100 µM (inactive). The GI50 (MDA-MB-231) was > 100 µM (inactive), the GI50 (MDA-MB-435) was > 100 µM (inactive) and the GI50 (MDA-N) was > 100 µM (inactive). For the same molecule, the GI50 (MOLT-4) was > 100 µM (inactive), the GI50 (Malme-3M) was > 100 µM (inactive) and the GI50 (NCI-H23) was > 100 µM (inactive). For the same molecule, the GI50 (NCI-H460) was > 100 µM (inactive), the GI50 (NCI-H522) was > 100 µM (inactive) and the GI50 (NCI/ADR-RES) was > 100 µM (inactive). For the same molecule, the GI50 (OVCAR-3) was > 100 µM (inactive), the GI50 (OVCAR-4) was > 100 µM (inactive) and the GI50 (OVCAR-5) was > 100 µM (inactive). For the same molecule, the GI50 (OVCAR-8) was > 100 µM (inactive), the GI50 (PC-3) was > 100 µM (inactive) and the GI50 (RPMI-8226) was > 100 µM (inactive). The GI50 (RXF 393) was > 100 µM (inactive), the GI50 (SF-268) was > 100 µM (inactive) and the GI50 (SF-295) was > 100 µM (inactive). The GI50 (SK-MEL-28) was > 100 µM (inactive), the GI50 (SK-MEL-2) was > 100 µM (inactive) and the GI50 (SK-MEL-5) was > 100 µM (inactive). The GI50 (SK-OV-3) was > 100 µM (inactive), the GI50 (SNB-19) was > 100 µM (inactive) and the GI50 (SNB-75) was > 100 µM (inactive). For the same molecule, the GI50 (SW-620) was > 100 µM (inactive), the GI50 (T47D) was > 100 µM (inactive) and the GI50 (TK-10) was > 100 µM (inactive). For the same molecule, the GI50 (U-251) was > 100 µM (inactive), the GI50 (UACC-257) was > 100 µM (inactive) and the GI50 (UACC-62) was > 100 µM (inactive). For the same molecule, the GI50 (UO-31) was > 100 µM (inactive).
With `Cc1nc(/C(=N\n2cnnc2)Nc2ccc(Br)cc2)no1` the GI50 (786-0) was > 100 µM (inactive), the GI50 (A498) was > 100 µM (inactive) and the GI50 (A549) was > 100 µM (inactive). The GI50 (ACHN) was > 100 µM (inactive), the GI50 (BT-549) was > 100 µM (inactive) and the GI50 (CAKI-1) was > 100 µM (inactive). For the same molecule, the GI50 (CCRF-CEM) was > 100 µM (inactive), the GI50 (COLO 205) was > 100 µM (inactive) and the GI50 (DU-145) was > 100 µM (inactive). The GI50 (EKVX) was > 100 µM (inactive), the GI50 (HCC 2998) was > 100 µM (inactive) and the GI50 (HCT-116) was > 100 µM (inactive). The GI50 (HCT-15) was > 100 µM, the GI50 (HOP-62) was > 100 µM (inactive) and the GI50 (HOP-92) was > 100 µM (inactive). The GI50 (HT-29) was > 100 µM (inactive), the GI50 (Hs-578T) was > 100 µM (inactive) and the GI50 (IGROV-1) was > 100 µM (inactive). The GI50 (K562) was 57.1 µM (inactive), the GI50 (KM12) was > 100 µM (inactive) and the GI50 (M14) was > 100 µM (inactive). For the same molecule, the GI50 (MCF7) was > 100 µM (inactive), the GI50 (MDA-MB-231) was > 100 µM (inactive) and the GI50 (MDA-MB-435) was > 100 µM (inactive). The GI50 (MDA-N) was > 100 µM (inactive), the GI50 (MOLT-4) was > 100 µM (inactive) and the GI50 (Malme-3M) was > 100 µM (inactive). For the same molecule, the GI50 (NCI-H23) was > 100 µM (inactive), the GI50 (NCI-H460) was > 100 µM (inactive) and the GI50 (NCI-H522) was > 100 µM (inactive). For the same molecule, the GI50 (NCI/ADR-RES) was > 100 µM (inactive), the GI50 (OVCAR-3) was > 100 µM (inactive) and the GI50 (OVCAR-4) was > 100 µM (inactive). The GI50 (OVCAR-5) was > 100 µM (inactive), the GI50 (OVCAR-8) was > 100 µM (inactive) and the GI50 (PC-3) was > 100 µM (inactive). The GI50 (RPMI-8226) was > 100 µM (inactive), the GI50 (RXF 393) was > 100 µM (inactive) and the GI50 (SF-295) was > 100 µM (inactive). For the same molecule, the GI50 (SK-MEL-28) was > 100 µM (inactive), the GI50 (SK-MEL-2) was > 100 µM (inactive) and the GI50 (SK-MEL-5) was > 100 µM (inactive). The GI50 (SK-OV-3) was > 100 µM (inactive), the GI50 (SNB-19) was > 100 µM (inactive) and the GI50 (SNB-75) was 66.7 µM (inactive). For the same molecule, the GI50 (SW-620) was > 100 µM (inactive), the GI50 (T47D) was > 100 µM (inactive) and the GI50 (U-251) was > 100 µM (inactive). The GI50 (UACC-257) was > 100 µM (inactive), the GI50 (UACC-62) was > 100 µM (inactive) and the GI50 (UO-31) was > 100 µM (inactive).
